Measured values reported in US20220226321A1, “INHIBITOR OF MNK FOR THE TREATMENT OF NEUROPATHIC PAIN” (Board of Regents, The University of Texas System, priority 2019, published 2022).
Entries after “also recorded” stand apart in the source; their conditions may differ.

How the values were obtained:
paclitaxel-treated mice = assay: mechanical paw withdrawal threshold (von Frey) in paclitaxel-induced CIPN; type: in vivo, mouse; conditions: intrathecal 10 μg, paclitaxel-induced pain
cultured DRG neurons = assay: Western blot of cultured DRG neurons treated with IFN-α, IFN-β, ISRIB or poly (I:C); type: cell-based, mouse; conditions: for AKT phosphorylation / ERK and eIF4E phosphorylation / downstream JAK/STAT signaling pathways / BiP expression or signaling via PKR and downstream p-eIF2α / PKR phosphorylation / mTOR or ribosomal protein S6 phosphorylation: 300 U/mL; for BiP expression or signaling via PKR and downstream p-eIF2α: 1-6 h; for PKR phosphorylation: long exposure (24 h); for mTOR or ribosomal protein S6 phosphorylation: time course of 6 h
Protocol: Primary cell culture of mouse DRG neurons and Western blot. Cultured primary DRG neurons were used to test the effects of IFN-α [(300 units (U)/mL] and IFN-β [(300 units (U)/mL] application. For these experiments, mice were anesthetized with isoflurane and killed by decapitation. Then DRGs, from all spinal levels, were dissected and placed in chilled Hanks balanced-salt solution (HBSS, Invitrogen) until processed. Dorsal root ganglia were digested in 1 mg/mL collagenase A (Roche, Mannheim, Germany) for 25 minutes at 37° C. then subsequently digested in a 1:1 mixture of 1 mg/mL collagenase D and papain (Roche) for 20 minutes at 37° C. After this step, dorsal root ganglia were then triturated in a 1:1 mixture of 1 mg/mL trypsin inhibitor (Roche) and bovine serum albumin (BioPharm Laboratories, Bluffdale, Utah), then filtered through a 70 μm cell strainer (Corning, N.Y.). Cells were pelleted then resuspended in DMEM/F12 with GlutaMAX (Thermo Fisher Scientific, MA) containing 10% fetal bovine serum (FBS; Thermo Fisher Scientific), 5 ng/mL NGF, 1% penicillin and streptomycin, and […] to inhibit mitosis of non-neuronal cells and were distributed evenly in a 6-well plate coated with poly-D-lysine (Becton Dickinson, NJ). DRG neurons were maintained in a 37° C. incubator containing 5% CO2 with a media change every other day. On day 6, DRG neurons were treated with either vehicle, IFN-α or IFN-β for 1, 3, 6 and 24 h. Following treatments, cells were rinsed with chilled 1×PBS buffer, harvested in 200 μL of RIPA lysis buffer (50 mM Tris, pH 7.4, 150 mM NaCl, 1 mM EDTA, pH 8.0, and 1% Triton X-100) containing protease and phosphatase inhibitors (Sigma-Aldrich), and then sonicated for 5 seconds. To clear debris, samples were centrifuged at 14,000 rpm for 15 min at 4° C. Ten to 15 μg of protein was loaded into each well and separated by a 10% SDS-PAGE gel. Proteins were transferred to a 0.45 PVDF membrane (Millipore, MA) at 30 V overnight at 4° C. Subsequently, membranes were blocked with 5% non-fat dry milk in 1× Tris buffer solution containing Tween 20 (TTBS) for at least 2 h. Membranes were washed 3 times for 10 minutes each (3×10) in 1×TTBS, then incubated with primary antibodies overnight at 4° C. The following day, membranes were washed 3×10 each then incubated with the corresponding secondary antibodies at room temperature for 1 h. After incubation, membranes were washed with 1×TTBS 3×10 each. Signals were detected using Immobilon Western Chemiluminescent HRP Substrate (Millipore) and then visualized with Bio-Rad ChemiDoc Touch. Membranes were stripped using Restore Western Blot Stripping buffer (Thermo Fisher Scientific) and reprobed with another antibody. Analysis was performed using Image lab 6.0.1 software for Mac (Bio-Rad, Hercules, Calif.).

SNI mice [1] = assay: mechanical withdrawal threshold (von Frey) after SNI; type: in vivo, mouse; conditions: WT and 4EKI, 10 μg i.t., 2 hours after injection on each CPP conditioning day
Protocol: (§1) Surgery. Spared nerve injury (SNI) was performed by the ligation and cutting of the tibial and peroneal branches of the left sciatic nerve trifurcation, leaving the sural branch intact as previously described (Decosterd and Woolf, 2000). Sham surgeries were performed the same way but without cutting the nerve. Mice were allowed to recover for 2 weeks following surgery.
Mechanical withdrawal threshold. Tactile sensitivity was measured by probing the left outer surface of the left hindpaw with a series of calibrated von Frey filaments. Mechanical withdrawal thresholds were assessed in all animals before (baseline) and after (2 weeks) surgery to confirm neuropathy. Withdrawal thresholds were calculated using the up-down method (Chaplan et al., 1994).

SNI mice [2] = assay: conditioned place preference (CPP) after SNI; type: in vivo, mouse; conditions: 10 μg i.t.
Protocol: Conditioned Place Preference. A previously published CPP protocol from the Walters laboratory protocol was used (Yang et al., 2014). The CPP box consisted of one black and one white chamber connected by a striped chamber. CPP was conducted in a dark room with a single low lumens light source (Maia 69E120-WH). The middle chamber of the CPP box was brightly illuminated to discourage mice from spending time in the middle chamber. […] On day 1 of testing (preconditioning), each mouse was permitted to explore the middle and black (but not white) chambers for 30 minutes. […] On the last day of CPP, each mouse was placed in the middle chamber with unrestricted access to all chambers and video-recorded for 10 min. Data are presented as the percent change in time spent in the drug-paired chambered compared to the control (vehicle or sham for each genotype or surgery). This was calculated by dividing each animal's time spent in the white box by the control average, multiplying by 100 and then subtracting 100.
as §1

SNI mice [3] = conditions: neuropathic mice (Shiers et al., 2018); cited from earlier work
infralimbic cortex = conditions: neuropathic mice (Shiers et al., 2018); cited from earlier work
mice [4] = assay: thermal latency (Hargreaves) after type I IFN or poly (I:C); type: in vivo, mouse; conditions: i.pl. 300 U/25 μL; for thermal hypersensitivity: female mice; for paw withdrawal latency to thermal stimulation: male mice
Protocol: (§2) Behavior. Mice were housed on 12-hour light/dark cycles with food and water available ad libitum. Mice were randomized to groups from multiple cages to avoid using mice from experimental groups that were cohabitating. Sample size was estimated by performing a power calculation using G*Power (version 3.1.9.2). With 80% power and an expectation of d=2.2 effect size in behavioral experiments, and a set to 0.05, the sample size required was calculated as n=6 per group. The inventors therefore sought to have at least n=6 sample in all behavioral experiments. SD (set at 0.3) for the power calculation was based on previously published mechanical threshold data from the inventors' lab (Moy et al., 2017). Animals were habituated for 1 hour to clear acrylic behavioral chambers before beginning the experiment. For intraplantar injections, drugs were injected in a total volume of 25 μL through a 30-gauge needle. For intraperitoneal injections, drugs were administered in a volume of 100 μL Mechanical paw withdrawal thresholds in mice were measured using the up-down method (Chaplan et al., 1994) with calibrated von Frey filaments (Stoelting Company, WoodDale, Ill.). Thermal latency was measured using a Hargreaves device (IITC Life Science) (Hargreaves et al., 1988) with heated glass settings of 29° C., 40% active laser power, and 20 sec cutoff were used. The experimenter was blinded to the genotype of the mice and the drug condition in all experiments.

eIF4E = assay: immunocytochemistry of p-eIF4E in cultured DRG neurons; type: cell-based, mouse; conditions: 300 U/mL, one-hour stimulation
Protocol: Immunofluorescence. For primary neuronal cultures, DRG neurons were harvested and cultured for 6 days according to the protocol described above with the exception that cells were distributed evenly on poly-D-lysine-coated 8-well chamber slide with removable wells (cat #12-565-8, Fisher Scientific). After treatments, cells were fixed in ice-cold 10% formalin in 1×PBS for 1 h and processed for immunocytochemistry (ICC). Cells were washed with 1×PBS and permeabilized in 1×PBS containing 10% heat-inactivated normal goat serum (NGS; Atlanta Biologicals, Atlanta, Ga.) and 0.02% Triton X-100 (Sigma) in 1×PBS for 30 min and then blocked in 10% NGS in 1×PBS for 2 h. […] Images were taken using an Olympus FluoView 1200 confocal microscope and analyzed with FIJI for Mac OS X. Images shown are representative of samples taken from 3 separate wells and presented as projections of Z stacks. Using ImageJ, the corrected total cell fluorescence (CTCF) was calculated to determine the intensity of the signal between experimental groups. To do so, the integrated density and the area, as well as the background noise was measured and the CTCF calculated as equal to: the integrated density −(area of selected cell×mean fluorescence of background readings). CTCF values from all experimental treatment groups were normalized to vehicle groups and expressed as normalized CTCF.

mice [5] = assay: mechanical paw withdrawal threshold (von Frey) after type I IFN or poly (I:C); type: in vivo, mouse; conditions: i.pl. 300 U/25 μL; for hind paw mechanical hypersensitivity: female mice; for mechanical hypersensitivity to von Frey filament stimulation: male mice
Protocol: as §2

DRG neurons [6] = assay: patch-clamp electrophysiology of DRG neurons exposed to IFN-α; conditions: 300 U/mL, ~1 h
[7] = tested on: cultured mouse DRG neurons; assay: microelectrode array (MEA) recordings of cultured DRG neurons exposed to IL-6; type: cell-based; conditions: IL-6 100 ng/ml, tomivosertib 25 nM co-treatment
Protocol: Extracellular electrophysiology. Substrate-integrated microelectrode array (MEA) recordings were performed using PDL and laminin pre-treated 12-well MEA plates (Axion Biosystems, USA) and an Axion Maestro recording system. DRG sensory neurons were dissected, dissociated, and seeded as previously described (Moy et al., 2017). […] Cultures were maintained at 37° C., 5% CO2, and ≥90% humidity throughout the recordings. Briefly, 30 min baseline recordings were carried out following a 30 min acclimation period. […] Recordings were then collected continuously for 3 hours. […] Online and offline MEA data analysis was performed using Axion's AxIS, NeuralMetrics Tools, and NeuroExplorer (NeuroExplorer, USA). Physiologically relevant extracellular action potentials were defined as previously described^29.

DRG neurons [8] = assay: whole-cell patch clamp of cultured DRG neurons treated with IL-6 and eFT508; type: cell-based, mouse
Protocol: Phosphorylation of the 5′ cap-binding protein eIF4E by MAPK interacting kinases MNK1/2 is important for nociceptor sensitization and the development of chronic pain. IL-6 induced DRG nociceptor excitability is attenuated in mice lacking eIF4E phosphorylation, in MNK1/2^−/− mice and by the nonselective MNK1/2 inhibitor cercosporamide. […] Dorsal root ganglion (DRG) neurons were cultured from male and female ICR mice, 4-7 weeks old. […] Whole-cell patch clamp recordings were done on small diameter neurons (20-30 pF) to measure membrane excitability in response to ramp depolarization. […] These findings are consistent with a model wherein MNK-eIF4E signaling controls the translation of signaling factors that regulate T-type VGCCs in response to IL-6 treatment.

Molecule: COc1ccc(-c2ccc3c(N4CCOC[C@@H]4C)nc(N4CCOC[C@@H]4C)nc3n2)cc1CO [AZD8055]
- mechanical allodynia / hypersensitivity after first injection (paclitaxel-treated mice): robust reduction in mechanical hypersensitivity; also recorded: relieves mechanical allodynia
- mechanical allodynia / hypersensitivity after second (subsequent) injection (paclitaxel-treated mice): the magnitude of this effect was decreased; also recorded: no significant effects were observed

Molecule: O=C(COc1ccc(Cl)cc1)NC1CCC(NC(=O)COc2ccc(Cl)cc2)CC1 (centres unmarked) [ISRIB]
- PKR phosphorylation after 24 h IFN-α (300 U/mL) in the presence of ISRIB (cultured DRG neurons; ISRIB 200 nM): no changes
- components of the signaling pathways activated after IFN-α or IFN-β application (cultured DRG neurons; ISRIB 200 nM): did not modulate

Molecule: Clc1cccc(Cl)c1N=C1NCCN1 [clonidine]
- mechanical hypersensitivity (SNI mice [1]): significantly attenuated mechanical hypersensitivity
- time spent in the drug-paired chamber vs 4EKI sham (SNI mice [2]; 4EKI SNI mice): no significant difference
- more time in the clonidine-paired chamber vs WT sham (SNI mice [2]; WT SNI female mice): ~30%

Molecule: CN(C)C(=N)N=C(N)N [metformin]
- cognitive deficits (SNI mice [3]): attenuated
- AIS shrinkage in the IL (infralimbic cortex): attenuated

Molecule: IFN-α
- thermal hypersensitivity (mice [4]): no significant changes
- paw withdrawal latency to thermal stimulation (mice [4]): no significant changes
- phosphorylation of eIF4E (ICC) (eIF4E): stimulated phosphorylation of eIF4E
- hind paw mechanical hypersensitivity (mice [5]): increased hind paw mechanical hypersensitivity
- mechanical hypersensitivity to von Frey filament stimulation (mice [5]): rapid mechanical hypersensitivity
- AKT phosphorylation (cultured DRG neurons): stimulated AKT phosphorylation
- ERK and eIF4E phosphorylation (cultured DRG neurons): increase
- downstream JAK/STAT signaling pathways (cultured DRG neurons): rapidly activated
- BiP expression or signaling via PKR and downstream p-eIF2α (cultured DRG neurons): did not modify
- PKR phosphorylation (cultured DRG neurons): did not modify
- mTOR or ribosomal protein S6 phosphorylation (cultured DRG neurons): did not observe any changes
- excitability, number of action potentials elicited by ramp current injections (DRG neurons [6]): elevated excitability
- latency to the first spike following ramp current injection (DRG neurons [6]): shortened the latency
- resting membrane potential (RMP) (DRG neurons [6]): -47.5±2.5 mV

Molecule: IL-6: interleukin-6, a cytokine that evokes pain
- spontaneous firing [7]: enhanced spontaneous firing
- amplitudes of T-type voltage-gated calcium channels (VGCCs) (DRG neurons [8]; IL-6, eFT508 co-treatment): increased
- latency to the first action potential in the ramp protocol (DRG neurons [8]; IL-6, eFT508 pretreatment): lower
- action potential firing in response to ramp depolarization (DRG neurons [8]; one hr IL-6, eFT508 pretreatment followed by IL-6): increased action potential firing

B1: IFN-β: Recombinant mouse IFN-β protein (protein, UniProt P01575 22-182, looked up)
Interferon beta: INYKQLQLQERTNIRKCQELLEQLNGKINLTYRADFKIPMEMTEKMQKSYTAFAIQEMLQNVFLVFRNNFSSTGWNETIVVRLLDELHQQTVFLKTVLEEKQEERLTWEMSSTALHLKSYYWRVQRYLKLMKYNSYAWMVVRAEIFRNFLIIRRLTRNFQN
- thermal hypersensitivity (mice [4]): no significant changes
- paw withdrawal latency to thermal stimulation (mice [4]): no significant changes
- phosphorylation of eIF4E (ICC) (eIF4E): stimulated phosphorylation of eIF4E
- hind paw mechanical hypersensitivity (mice [5]): increased hind paw mechanical hypersensitivity
- mechanical hypersensitivity to von Frey filament stimulation (mice [5]): rapid mechanical hypersensitivity
- AKT phosphorylation (cultured DRG neurons): stimulated AKT phosphorylation
- ERK and eIF4E phosphorylation (cultured DRG neurons): increase
- downstream JAK/STAT signaling pathways (cultured DRG neurons): rapidly activated
- BiP expression or signaling via PKR and downstream p-eIF2α (cultured DRG neurons): did not modify
- PKR phosphorylation (cultured DRG neurons): did not modify
- mTOR or ribosomal protein S6 phosphorylation (cultured DRG neurons): did not observe any changes
